Experimental data reported in patent US20240217957A1, “HETEROCYCLIC COMPOUND AND USE THEREOF” (TAKEDA PHARMACEUTICAL COMPANY LIMITED, priority 2022, published 2024).

Legend:
human OX2 receptor = molecular target: T1, human OX2 receptor (Homo sapiens, UniProt O43614); assay: Measurement of orexin type 2 receptor agonist activity (calcium fluorescence, Fluo-4 AM, FDSS); type: cell-based; details: compound at 3 μM; CHO cells forcibly expressing human OX2 receptor; DMSO = 0%, 10 nM orexin A (human) = 100%
T1 construct: expressed in transfected cells
T1 sequence (O43614 1-444): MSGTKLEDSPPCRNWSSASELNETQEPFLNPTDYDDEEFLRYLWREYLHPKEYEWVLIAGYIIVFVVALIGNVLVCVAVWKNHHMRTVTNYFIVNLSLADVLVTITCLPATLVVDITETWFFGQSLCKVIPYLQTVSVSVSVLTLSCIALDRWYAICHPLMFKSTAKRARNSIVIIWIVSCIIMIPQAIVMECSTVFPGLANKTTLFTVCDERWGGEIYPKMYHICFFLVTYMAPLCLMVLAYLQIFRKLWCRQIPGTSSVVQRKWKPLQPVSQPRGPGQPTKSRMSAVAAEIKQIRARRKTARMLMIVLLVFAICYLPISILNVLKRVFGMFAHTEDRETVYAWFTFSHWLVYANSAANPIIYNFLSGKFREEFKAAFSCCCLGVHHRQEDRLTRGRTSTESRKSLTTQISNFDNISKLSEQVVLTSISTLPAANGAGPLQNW
In short: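 Agonist response is expressed as % of the fluorescence change given by 10 nM human orexin A, with DMSO as 0%, read over 1 min 40 s on FDSS after compound addition. Cells: stable human OX2 (1-444) CHO-K1 clones, dye-loaded with Fluo-4 AM plus probenecid in HEPES-buffered HBSS with 0.1% BSA.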

cynomolgus monkeys = assay: Evaluation of wake-promoting effects in cynomolgus monkeys (EEG, EMG, locomotor activity); type: in vivo, cynomolgus monkey; details: 3 mg/kg p.o. at zeitgeber time 12, male cynomolgus monkeys, time spent in wakefulness for 4 hours after administration
Procedure: The wake-promoting effects were evaluated by measuring the electroencephalogram (EEG), electromyogram (EMG) and locomotor activity in cynomolgus monkeys. Under isoflurane anesthesia (0.5-5%, Pfizer Japan Inc., Tokyo, Japan), male cynomolgus monkeys (2-3 years old, Hamri Co., Ltd., Ibaraki, Japan) were surgically implanted with radio-telemetry transmitters (L03-F3, Data Sciences International Inc., MN, USA). The two EEG electrodes were stereotaxically positioned at the parietal area and secured to the cranium with stainless-steel screws in contact with the dura. Bilateral EMG electrodes were implanted into the back cervical muscles.
After at least a 1-month recovery period in home cages, the monkeys were habituated to the recording chamber (an acrylic cage 60 W×55 D×75 H (cm)) located in a soundproof and electrically shielded room by the time animals sleep sufficiently in the experimental room. Cortical EEG, EMG and locomotor activity were recorded using the telemetry system (PhysioTel Digital telemetry platform, Data Sciences International Inc.). The signals were semi-automatically scored in 20-second epochs by a sleep scoring system (SleepSign, Kissei Comtec Co., Ltd., Nagano, Japan).
Test compound (3 mg/kg) suspended in 0.5% methylcellulose aqueous solution or vehicle (i.e., 0.5% methylcellulose aqueous solution) was administered orally (p.o.) to monkeys at zeitgeber time 12 in a volume of 5 mL/kg body weight with a pretest-posttest design (n=2), and then EEG, EMG and locomotor activity were recorded. The time spent in wakefulness for 4 hours after administration (% of vehicle treatment) was calculated by using SleepSign.

Structure (SMILES) | OX2R agonist activity (3 μM, %) (human OX2 receptor) | Wakefulness time (% of vehicle treatment) (Mean, n = 2) (cynomolgus monkeys)
Cc1cnc([C@@H]2CC(N3C[C@@H](NS(C)(=O)=O)C(F)(F)C3)=NO2)c(-c2c(F)cc(F)cc2F)c1 [Example 11, N-[(3R)-4,4-difluoro-1-{(5S)-5-[5-methyl-3-(2,4,6-trifluorophenyl)pyridin-2-yl]-4,5-dihydro-1,2-oxazol-3-yl}pyrrolidin-3-yl]methanesulfonamide] | 96% | 638.80 % of vehicle treatment
CS(=O)(=O)N[C@@H]1CN(C2=NO[C@](CF)(c3ncc(F)cc3-c3c(F)cccc3F)C2)CC1(F)F [Example 109, N-[(3R)-1-{(5S)-5-[3-(2,6-difluorophenyl)-5-fluoropyridin-2-yl]-5-(fluoromethyl)-4,5-dihydro-1,2-oxazol-3-yl}-4,4-difluoropyrrolidin-3-yl]methanesulfonamide] | 101% | 558.37 % of vehicle treatment
O=S(=O)(CF)N[C@@H]1CN(C2=NO[C@](CF)(c3ncc(F)cc3-c3c(F)cccc3F)C2)CC1(F)F [Example 149, N-[(3R)-1-{(5S)-5-[3-(2,6-difluorophenyl)-5-fluoropyridin-2-yl]-5-(fluoromethyl)-4,5-dihydro-1,2-oxazol-3-yl}-4,4-difluoropyrrolidin-3-yl]-1-fluoromethanesulfonamide] | 96% | 282.21 % of vehicle treatment
C[C@@]1(c2ncc(F)cc2-c2c(F)cccc2F)CC(N2C[C@@H](NS(C)(=O)=O)C(F)(F)C2)=NO1 [Example 165, N-[(3R)-1-{(5S)-5-[3-(2,6-difluorophenyl)-5-fluoropyridin-2-yl]-5-methyl-4,5-dihydro-1,2-oxazol-3-yl}-4,4-difluoropyrrolidin-3-yl]methanesulfonamide] | 100% | 716.25 % of vehicle treatment
CS(=O)(=O)N[C@@H]1CN(C2=NOC(c3c(F)cc(Cl)cc3-c3ncc(F)cc3F)C2)CC1(F)F (stereo partly drawn) [Example 171, N-[(3R)-1-{5-[4-chloro-2-(3,5-difluoropyridin-2-yl)-6-fluorophenyl]-4,5-dihydro-1,2-oxazol-3-yl}-4,4-difluoropyrrolidin-3-yl]methanesulfonamide] | 109% | –
CS(=O)(=O)N[C@@H]1CN(C2=NOC(c3c(F)cc(F)c(F)c3-c3c(F)cccc3F)C2)CC1(F)F (stereo partly drawn) [Example 172, N-{(3R)-4,4-difluoro-1-[5-(2′,3,5,6,6′-pentafluoro[1,1′-biphenyl]-2-yl)-4,5-dihydro-1,2-oxazol-3-yl]pyrrolidin-3-yl}methanesulfonamide] | 99% | –
O=S(=O)(CF)N[C@@H]1CN(C2=NOC(c3c(F)ccc(F)c3-c3c(F)cccc3F)C2)CC1(F)F (stereo partly drawn) [Example 173, N-{(3R)-4,4-difluoro-1-[5-(2′,3,6,6′-tetrafluoro[1,1′-biphenyl]-2-yl)-4,5-dihydro-1,2-oxazol-3-yl]pyrrolidin-3-yl}-1-fluoromethanesulfonamide] | 100% | –
O=S(=O)(CF)N[C@@H]1CN(C2=NOC(c3c(F)cc(F)c(F)c3-c3c(F)cccc3F)C2)CC1(F)F (stereo partly drawn) [Example 174, N-{(3R)-4,4-difluoro-1-[5-(2′,3,5,6,6′-pentafluoro[1,1′-biphenyl]-2-yl)-4,5-dihydro-1,2-oxazol-3-yl]pyrrolidin-3-yl}-1-fluoromethanesulfonamide] | 107% | –
COc1cccc(F)c1-c1cc(C)cc(F)c1C1CC(N2C[C@@H](NS(C)(=O)=O)C(F)(F)C2)=NO1 (stereo partly drawn) [Example 175, N-{(3R)-1-[5-(2′,3-difluoro-6′-methoxy-5-methyl[1,1′-biphenyl]-2-yl)-4,5-dihydro-1,2-oxazol-3-yl]-4,4-difluoropyrrolidin-3-yl}methanesulfonamide] | 112% | –
Cc1cc(F)c(C2CC(N3C[C@@H](NS(C)(=O)=O)C(F)(F)C3)=NO2)c(-c2ncccc2F)c1 (stereo partly drawn) [Example 176, N-[(3R)-4,4-difluoro-1-{5-[2-fluoro-6-(3-fluoropyridin-2-yl)-4-methylphenyl]-4,5-dihydro-1,2-oxazol-3-yl}pyrrolidin-3-yl]methanesulfonamide] | 109% | –
Cc1cc(F)c(C2CC(N3C[C@@H](NS(=O)(=O)CF)C(F)(F)C3)=NO2)c(-c2ncc(F)cc2F)c1 (stereo partly drawn) [Example 177, N-[(3R)-1-{5-[2-(3,5-difluoropyridin-2-yl)-6-fluoro-4-methylphenyl]-4,5-dihydro-1,2-oxazol-3-yl}-4,4-difluoropyrrolidin-3-yl]-1-fluoromethanesulfonamide] | 106% | –
Cc1cc(F)c(C2CC(N3C[C@H](F)[C@H](NS(C)(=O)=O)C3)=NO2)c(-c2ncc(F)cc2F)c1 (stereo partly drawn) [Example 178, N-[(3R,4S)-1-{5-[2-(3,5-difluoropyridin-2-yl)-6-fluoro-4-methylphenyl]-4,5-dihydro-1,2-oxazol-3-yl}-4-fluoropyrrolidin-3-yl]methanesulfonamide] | 111% | –
